From patent US9107870B2, “Angiotensin peptides in treating marfan syndrome and related disorders” (TARIX PHARMACEUTICALS LTD, priority 2013, dated 2015)
“Also recorded” adds a separate entry of the source.

What was measured:
[1] = test system: Fbn1^C1039G/+ mice (Marfan mice); test: Aortic root growth in Marfan mice by in vivo echocardiography; conditions: 500 μg/kg/day subcutaneous daily for 60 days, compared to Marfan mice treated with placebo, FIG. 1
Excerpt: (§1) In this Example, a total of 20 mice were used, with 8 mice being wild-type and 12 being Fbn1^C1039G+ mice, also referred to as “Marfan mice”, that are each […] for a fibrillin-1 (Fbn1) allele encoding a cysteine substitution, Cys1039Gly (C1039G), in an epidermal growth factor-like domain of Fbn1 (Fbn1^C1039G/+).
The Fbn1C1039G mice are a well-accepted model of Marfan Syndrome and the Fbn1 mutation is the most common class of mutation causing Marfan Syndrome. Typically, the aortic root in Fbn1C1039G mice undergoes progressive dilatation, evident as early as 2 weeks of age. […] This observed size difference generally becomes more pronounced over time. […] In addition, Fbn1C1039G mice show increased collagen deposition, which is an indirect marker of increased TGF-β signaling.
In order to determine the effects of angiotensin (1-7) peptides, here TXA127, on the normal course of disease development, both wild-type and Marfan mice were each separated into two groups once the mice reached 2 months of age. […]
The primary endpoint of this study was degree of aortic growth observed over the 60 day treatment period, as measured by in vivo echocardiography. […]

wild-type mice = test: Aortic root growth in wild-type mice by in vivo echocardiography; conditions: 500 μg/kg/day subcutaneous daily for 60 days, compared to wild type mice treated with placebo, FIG. 1
Excerpt: as §1
In order to determine the effects of angiotensin (1-7) peptides, here TXA127, on the normal course of disease development, both wild-type and Marfan mice were each separated into two groups once the mice reached 2 months of age. In each of the wild-type mice and Marfan mice, the placebo control group received daily subcutaneous saline injections for 60 days, while the TXA127 group received daily subcutaneous injections of TXA127 at a dose of 500 μg/kg/day for 60 days.
The primary endpoint of this study was degree of aortic growth observed over the 60 day treatment period, as measured by in vivo echocardiography. A baseline echocardiogram was performed just prior to the beginning of the treatment period and then again just prior to sacrifice. After the 60 day treatment period, mice were sacrificed and tissue samples were taken for histological and other analysis.

Asp^1-Arg^2-Val^3-Tyr^4-Ile^5-His^6-Pro^7 (DRVYIHP) [TXA127]
degree of aortic root growth [1]: highly significant reduction; also recorded: essentially eliminated | aortic root growth (wild-type mice): no statistically significant effect
